Read-outs that look alike come from different tables or passages of the source.
Columns and labels:
[1] = Plasma pharmacokinetics of SGC003F in rats with or without tariquidar; assay type: in vivo, rat; details: for clearance / AUC(0-t) / Vd / Tmax / half-life / Cmax / bioavailability: male, Sprague-Dawley, plasma; for Vd: read-out: Vss; for bioavailability: read-out: F (bioavailability)
Procedure: Adult Sprague Dawley rats (230–280 g) were obtained from Beijing Vital River Laboratory Animal Technology Co., Ltd. (Beijing, China). The animals were kept in a controlled environment with a 12 h light/dark cycle and stable temperature, and had free access to food and water, adapting for one week. All animal procedures were approved by the Experimental Animal Ethics Committee of Beijing Institute of Pharmacology and Toxicology (IACUC-DWZX-2023-P718).
SGC003F and tariquidar were dissolved in a solvent consisting of 11% isopropyl myristate, 74% polyethylene glycol 35 castor oil, and 15% diethylene glycol monoethyl ether. The stock solution concentrations were 1 mg/mL for SGC003F and 22.5 mg/mL for tariquidar. Next, the stock solution of SGC003F and tariquidar were diluted with saline at a ratio of 1:9 and 1:3.5, respectively, to achieve a working solution of SGC003F (0.1 mg/mL) and tariquidar (5 mg/mL) for oral and intravenous administration in rats.
Thirty-six male SD rats were randomly divided into 6 groups, with 6 rats in each group. Group I: SGC003F (p.o., 1 mg/kg) + blank vehicle (control group); Group II: SGC003F (p.o., 1 mg/kg) + tariquidar (i.v., 7.5 mg/kg); Group III: SGC003F (p.o., 1 mg/kg) + tariquidar (p.o., 15 mg/kg); Group IV: SGC003F (i.v., 1 mg/kg) + blank vehicle; Group V: SGC003F (i.v., 1 mg/kg) + tariquidar (i.v., 7.5 mg/kg); Group VI: SGC003F (i.v., 1 mg/kg) + tariquidar (p.o., 15 mg/kg). Oral administration required fasting for 12 h in advance and free access to water. At 0.033 (i.v.), 0.083, 0.25, 0.5, 1, 2, 4, 8, 12, and 24 h after administration, 100 μL of blood was collected intravenously and placed in heparin tubes. All blood samples were centrifuged at 2500× g for 10 min at 4 °C, and plasma was stored at −40 °C for analysis.
The main pharmacokinetic parameters, such as time to peak (tmax), half-life (t1/2), peak concentration (Cmax), and area under the curve (AUC), bioavailability (F), were calculated using a non-compartmental model with WinNonlin 8.1 software (Princeton, NJ, USA).
The elimination rate constant (ke or λz) was determined from the terminal phase of the concentration–time curve by using a semilogarithmic plot. Furthermore, the half-life (t1/2) was calculated according to this equation t1/2 = 0.693/ke(1)
Bioavailability (F) was calculated according to Equation (2):F = Dose(i.v.) × AUC(p.o.)/Dose(p.o.) × AUC(i.v.) × 100%(2)

[2] = In vitro metabolic stability in rat liver microsomes; assay type: in vitro ADME; details: 1 µM, up to 60 min, NADPH or UDPGA
Procedure: In vitro incubation dependent on NADPH: SGC003F was added into rat and human liver microsomes diluted in PBS (100 mM, pH 7.3). NADPH was introduced into the system. The NADPH had been pre-equilibrated under the same conditions for 5 min to initiate the enzymatic reaction. The incubation mixture was meticulously prepared to achieve the following final concentrations: 1 µM for SGC003F, 0.5 mg/mL for the liver microsomal protein, and 1 mM for NADPH.
In vitro incubation dependent on UDPGA: rat and human liver microsomes diluted in PBS (100 mM, pH 7.3) were mixed with alamethicin and then placed on ice for 15 min before the addition of the working solution of SGC003F. After preincubation in a water bath at 37 °C for 5 min, UDPGA, which had been preincubated for 5 min was added to initiate the reaction. The final concentrations in the incubation system were as follows: 1 μM for SGC003F, 0.5 mg/mL for liver microsomal protein concentration, 5 mM for UDPGA, and 25 μg/mL for alamethicin.
Positive probe substrate assays were utilized to ensure normal activity of the incubation system. […] Finally, 60 μL supernatant was taken and diluted with 60 μL of 50% acetonitrile before being analyzed by LC-MS/MS.

[3] = rat, po, 1 mg/kg, SGC003F p.o. 1 mg/kg, single
[4] = rat, po, 1 mg/kg, SGC003F p.o. 1 mg/kg, with tariquidar i.v. 7.5 mg/kg
[5] = rat, po, 1 mg/kg, SGC003F p.o. 1 mg/kg, with tariquidar p.o. 15 mg/kg
[6] = rat, po, 1 mg/kg, rat plasma, SGC003F p.o. 1 mg/kg, single
[7] = rat, po, 1 mg/kg, rat plasma, SGC003F p.o. 1 mg/kg, with tariquidar i.v. 7.5 mg/kg
[8] = rat, po, 1 mg/kg, rat plasma, SGC003F p.o. 1 mg/kg, with tariquidar p.o. 15 mg/kg
[9] = rat plasma, SGC003F p.o. 1 mg/kg, tariquidar i.v. 7.5 mg/kg
[10] = rat plasma, SGC003F p.o. 1 mg/kg, tariquidar p.o. 15 mg/kg
[11] = rat, SGC003F i.v. 1 mg/kg, tariquidar i.v. 7.5 mg/kg
[12] = rat, SGC003F i.v. 1 mg/kg, tariquidar p.o. 15 mg/kg
[13] = rat, SGC003F p.o. 1 mg/kg, tariquidar i.v. 7.5 mg/kg
[14] = rat, SGC003F p.o. 1 mg/kg, tariquidar p.o. 15 mg/kg

COC(=O)Nc1c(N)nc(-c2nn(Cc3sccc3F)c3ncc(F)cc23)nc1N [SGC003F]
clearance ([1]; rat, iv, 1 mg/kg, SGC003F i.v. 1 mg/kg, single): 2.18 mL/min/kg | clearance ([1]; rat, iv, 1 mg/kg, SGC003F i.v. 1 mg/kg, with tariquidar i.v. 7.5 mg/kg): 2.03 mL/min/kg | clearance ([1]; rat, iv, 1 mg/kg, SGC003F i.v. 1 mg/kg, with tariquidar p.o. 15 mg/kg): 1.49 mL/min/kg | AUC(0-t) ([1]; rat, iv, 1 mg/kg, rat plasma, SGC003F i.v. 1 mg/kg, single): 7620 ± 560 ng·h/mL | AUC(0-t) ([1]; rat, iv, 1 mg/kg, rat plasma, SGC003F i.v. 1 mg/kg, with tariquidar i.v. 7.5 mg/kg): 8170 ± 530 ng·h/mL | AUC(0-t) ([1]; rat, iv, 1 mg/kg, rat plasma, SGC003F i.v. 1 mg/kg, with tariquidar p.o. 15 mg/kg): 11300 ng·h/mL | Vd ([1]; rat, iv, 1 mg/kg, rat, SGC003F i.v. 1 mg/kg, single): 0.419 ± 0.0318 L/kg | Vd ([1]; rat, iv, 1 mg/kg, rat, SGC003F i.v. 1 mg/kg, with tariquidar i.v. 7.5 mg/kg): 0.422 ± 0.0328 L/kg | Vd ([1]; rat, iv, 1 mg/kg, rat, SGC003F i.v. 1 mg/kg, with tariquidar p.o. 15 mg/kg): 0.382 ± 0.0266 L/kg | Tmax [1, 3]: 1.33 ± 0.52 h | half-life [1, 3]: 3.45 ± 0.46 h | Tmax [1, 4]: 1.5 ± 0.55 h | half-life [1, 4]: 4.31 ± 0.91 h | Tmax [1, 5]: 2.33 ± 1.37 h | half-life [1, 5]: 4.35 ± 0.35 h | AUC(0-t) [1, 6]: 3540 ± 610 ng·h/mL | Cmax [1, 6]: 673 ± 187 ng/mL | AUC(0-t) [1, 7]: 5690 ± 1080 ng·h/mL | Cmax [1, 7]: 722 ± 111 ng/mL | AUC(0-t) [1, 8]: 10800 ng·h/mL | Cmax [1, 8]: 1430 ± 250 ng/mL | bioavailability ([1]; rat, po, 1 mg/kg, rat, SGC003F p.o. 1 mg/kg, single): 46.4% | bioavailability ([1]; rat, po, 1 mg/kg, rat, SGC003F p.o. 1 mg/kg, with tariquidar i.v. 7.5 mg/kg): 69.7% | bioavailability ([1]; rat, po, 1 mg/kg, rat, SGC003F p.o. 1 mg/kg, with tariquidar p.o. 15 mg/kg): 95.1% | bioavailability ([1]; rat, po, rat, SGC003F p.o. 1 mg/kg, with tariquidar p.o. 15 mg/kg): 95% | AUC0-t, Ratio 1 (with Tar (i.v.)/single) ([1]; rat plasma, SGC003F i.v. 1 mg/kg, tariquidar i.v. 7.5 mg/kg): 1.07 | AUC0-t, Ratio 2 (with Tar (p.o.)/single) ([1]; rat plasma, SGC003F i.v. 1 mg/kg, tariquidar p.o. 15 mg/kg): 1.49 | AUC0-t, Ratio 1 (with Tar (i.v.)/single) [1, 9]: 1.61 | Cmax, Ratio 1 (with Tar (i.v.)/single) [1, 9]: 1.07 | AUC0-t, Ratio 2 (with Tar (p.o.)/single) [1, 10]: 3.05 | Cmax, Ratio 2 (with Tar (p.o.)/single) [1, 10]: 2.13 | CL, Ratio 1 (with Tar (i.v.)/single) [1, 11]: 0.93 | Vss, Ratio 1 (with Tar (i.v.)/single) [1, 11]: 1.00 | CL, Ratio 2 (with Tar (p.o.)/single) [1, 12]: 0.68 | Reduction of CL versus control group [1, 12]: 32% | Vss, Ratio 2 (with Tar (p.o.)/single) [1, 12]: 0.91 | F, Ratio 1 (with Tar (i.v.)/single) [1, 13]: 1.50 | Tmax, Ratio 1 (with Tar (i.v.)/single) [1, 13]: 1.13 | t1/2, Ratio 1 (with Tar (i.v.)/single) [1, 13]: 1.25 | F, Ratio 2 (with Tar (p.o.)/single) [1, 14]: 2.05 | Tmax, Ratio 2 (with Tar (p.o.)/single) [1, 14]: 1.75 | t1/2, Ratio 2 (with Tar (p.o.)/single) [1, 14]: 1.26 | Metabolic stability (percentage of drug remaining over time) [2]: no significant metabolic elimination

Source: article PMC11435065, “Inhibition of P-Glycoprotein Asymmetrically Alters the In Vivo Exposure Profile of SGC003F: A Novel Guanylate Cyclase Stimulator” (Pharmaceuticals, 2024)
